Experimental data taken from patent US10960004B2, “Method for treating cancer patients with severe renal impairment” (TAIHO PHARMACEUTICAL CO., LTD., priority 2016, dated 2021).
Where two headings read alike, the source gives them in different places.

Test: Pharmacokinetics of FTD and TPI in plasma of solid cancer patients given FTD/TPI combination drug, by renal function cohort
Assay type: in vivo, human
Conditions: for CL/F / Cmax / half-life / AUC(0-t): 35 mg/m^2 per once as FTD, oral, twice a day, plasma, mean; for Cmax / half-life / AUC(0-t): human, po; for AUC(0-t): read-out: AUC0-12; for AUC0-12 higher as compared to patients with normal renal function: after repeated administrations, 35 mg/m^2
Protocol: Pharmacokinetic of FTD was studied in patients with solid cancer including colorectal cancer, when performing a treatment of repeating an administration schedule of orally administering an FTD/TPI combination drug (mixture of FTD and TPI in a molar ratio of 1:0.5) in 35 mg/m^2 per once (as FTD, the same applies hereinafter) for 5 consecutive days twice a day, followed by rest for 2 days twice, followed by rest for 14 days, and repeating this procedure as one cycle. […] Blood collection was performed after administration of the FTD/TPI combination drug on Day 1 and Day 12, at predose and at 0.5, 1, 2, 4, 6, 8, 10, 12 hours after administration, and FTD and TPI concentrations in plasma were measured. Pharmacokinetic parameters of FTD and TPI were calculated using the resulting concentrations in the plasma, and the results were shown in Table 1.

[1] = Day 1, Cohort 0: normal renal function
[2] = Day 1, Cohort 1: mild renal impairment (CLcr 60 to 89 mL/min)
[3] = Day 1, Cohort 2: moderate renal impairment (CLcr 30 to 59 mL/min)
[4] = Day 12, Cohort 0: normal renal function
[5] = Day 12, Cohort 1: mild renal impairment (CLcr 60 to 89 mL/min)
[6] = Day 12, Cohort 2: moderate renal impairment (CLcr 30 to 59 mL/min)
[7] = 35 mg/m2, Day 1, Cohort 0: normal renal function
[8] = 35 mg/m2, Day 1, Cohort 1: mild renal impairment (CLcr 60 to 89 mL/min)
[9] = 35 mg/m2, Day 1, Cohort 2: moderate renal impairment (CLcr 30 to 59 mL/min)
[10] = 35 mg/m2, Day 12, Cohort 0: normal renal function
[11] = 35 mg/m2, Day 12, Cohort 1: mild renal impairment (CLcr 60 to 89 mL/min)
[12] = 35 mg/m2, Day 12, Cohort 2: moderate renal impairment (CLcr 30 to 59 mL/min)

| CL/F [1] | CL/F [2] | CL/F [3] | CL/F [4] | CL/F [5] | CL/F [6] | Cmax [7] | half-life [7] | AUC(0-t) [7] | Cmax [8] | half-life [8] | AUC(0-t) [8] | Cmax [9] | half-life [9] | AUC(0-t) [9] | Cmax [10] | half-life [10] | AUC(0-t) [10] | Cmax [11] | half-life [11] | SMILES | other results |
| --- | --- | --- | --- | --- | --- | --- | --- | --- | --- | --- | --- | --- | --- | --- | --- | --- | --- | --- | --- | --- | --- |
| 8.72 L/h | 10.08 L/h | 9.17 L/h | 3.29 L/h | 4.1 L/h | 2.1 L/h | 2880 ng/mL | 1.26 h | 7870 ng·h/mL | 3160 ng/mL | 1.79 h | 7290 ng·h/mL | 2760 ng/mL | 1.9 h | 8140 ng·h/mL | 5240 ng/mL | 2.09 h | 20100 ng·h/mL | 4670 ng/mL | 2.4 h | O=c1[nH]c(=O)n([C@H]2C[C@H](O)[C@@H](CO)O2)cc1C(F)(F)F [FTD, α,α,α-trifluorothymidine] | AUC(0-t) [11]: 23400 ng·h/mL; Cmax [12]: 6010 ng/mL; half-life [12]: 3.22 h; AUC(0-t) [12]: 30400 ng·h/mL; AUC0-12 higher as compared to patients with normal renal function (patients with mild renal impairment (Cohort 1)): about 16%; AUC0-12 higher as compared to patients with normal renal function (patients with moderate renal impairment (Cohort 2)): about 51% |
| 148.5 L/h | 105.1 L/h | 64.8 L/h | 128.3 L/h | 83.1 L/h | 62 L/h | 46.5 ng/mL | 2.04 h | 234 ng·h/mL | 93.9 ng/mL | 2.33 h | 380 ng·h/mL | 100 ng/mL | 2.42 h | 494 ng·h/mL | 48.8 ng/mL | 2.61 h | 247 ng·h/mL | 67.8 ng/mL | 2.54 h | Cl.N=C1CCCN1Cc1[nH]c(=O)[nH]c(=O)c1Cl [TPI, 5-chloro-6-[(2-iminopyrrolidine-1-yl)methyl]pyrimidine-2,4(1H,3H)-dione hydrochloride] | AUC(0-t) [11]: 383 ng·h/mL; Cmax [12]: 112 ng/mL; half-life [12]: 2.63 h; AUC(0-t) [12]: 602 ng·h/mL |
